PubChem BioAssay (NCI)
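Where inhibition never reached the appropriate level, the endpoint shown equals the highest concentration tested. Otherwise, values were interpolated linearly from a five-concentration, 48-hour dose response in 96-well plates. At the TGI there is no net growth.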

Tests used:
Test in all cases: DTP human tumour cell line panel, 48 h
IGROV1 ovarian = tested on: IGROV1 ovarian
U251 CNS = tested on: U251 CNS
NCI-H23 lung = tested on: NCI-H23 lung
M19-MEL melanoma = tested on: M19-MEL melanoma
SF-295 CNS = tested on: SF-295 CNS
MOLT-4 leukemia = tested on: MOLT-4 leukemia
SK-OV-3 ovarian = tested on: SK-OV-3 ovarian
786-0 renal = tested on: 786-0 renal
HOP-62 NSCLC = tested on: HOP-62 NSCLC
HT29 colon = tested on: HT29 colon
DMS 114 small cell lung = tested on: DMS 114 small cell lung
LOX IMVI melanoma = tested on: LOX IMVI melanoma
UO-31 renal = tested on: UO-31 renal
DLD-1 colon = tested on: DLD-1 colon
SNB-19 CNS = tested on: SNB-19 CNS
SK-MEL-28 melanoma = tested on: SK-MEL-28 melanoma
K-562 leukemia = tested on: K-562 leukemia
UACC-62 melanoma = tested on: UACC-62 melanoma
HOP-92 NSCLC = tested on: HOP-92 NSCLC
OVCAR-5 ovarian = tested on: OVCAR-5 ovarian
HL-60(TB) leukemia = tested on: HL-60(TB) leukemia
DMS 273 small cell lung = tested on: DMS 273 small cell lung
SW-620 colon = tested on: SW-620 colon
KM12 colon = tested on: KM12 colon
ACHN renal = tested on: ACHN renal
OVCAR-8 ovarian = tested on: OVCAR-8 ovarian
UACC-257 melanoma = tested on: UACC-257 melanoma
NCI-H460 lung = tested on: NCI-H460 lung
SK-MEL-5 melanoma = tested on: SK-MEL-5 melanoma
NCI-H226 lung = tested on: NCI-H226 lung
SK-MEL-2 melanoma = tested on: SK-MEL-2 melanoma
TK-10 renal = tested on: TK-10 renal
SR leukemia = tested on: SR leukemia
RXF 393 renal = tested on: RXF 393 renal
EKVX NSCLC = tested on: EKVX NSCLC
SF-268 CNS = tested on: SF-268 CNS
CCRF-CEM leukemia = tested on: CCRF-CEM leukemia
OVCAR-4 ovarian = tested on: OVCAR-4 ovarian
SN12C renal = tested on: SN12C renal
A549 NSCLC = tested on: A549 NSCLC
SF-539 CNS = tested on: SF-539 CNS
MALME-3M melanoma = tested on: MALME-3M melanoma
NCI-H522 lung = tested on: NCI-H522 lung
SNB-78 CNS = tested on: SNB-78 CNS
CAKI-1 renal = tested on: CAKI-1 renal
COLO 205 colon = tested on: COLO 205 colon
HOP-18 NSCLC = tested on: HOP-18 NSCLC
LXFL 529 NSCLC = tested on: LXFL 529 NSCLC
M14 melanoma = tested on: M14 melanoma
SNB-75 CNS = tested on: SNB-75 CNS
HCT-116 colon = tested on: HCT-116 colon
KM20L2 colon = tested on: KM20L2 colon
HCT-15 colon = tested on: HCT-15 colon
RPMI-8226 leukemia = tested on: RPMI-8226 leukemia
HCC-2998 colon = tested on: HCC-2998 colon
XF 498 CNS = tested on: XF 498 CNS
OVCAR-3 ovarian = tested on: OVCAR-3 ovarian

Measured: TGI

N#Cc1ccc(Sc2nc3ccccc3[nH]2)cc1
not listed: M14 melanoma | SNB-75 CNS | HCT-116 colon | KM20L2 colon | HCT-15 colon | RPMI-8226 leukemia | HCC-2998 colon | XF 498 CNS | OVCAR-3 ovarian
> 100 µM: all other assays above

O=[N+]([O-])c1ccc(-c2ccc(C3=Nn4c(CNc5ccccc5Cl)nnc4SC3)o2)cc1
not listed: DMS 114 small cell lung | SK-MEL-5 melanoma | RXF 393 renal | EKVX NSCLC | CCRF-CEM leukemia | OVCAR-4 ovarian | HOP-18 NSCLC
> 100 µM: all other assays above
